{"source": "patent US11963960B2", "about": "(Flash Therapeutics, LLC, priority 2020, dated 2024)"}
{"target": "N-terminally GST-tagged HCK (75-526) (Homo sapiens (Human), UniProt P08631)", "sequence (P08631 75-526)": "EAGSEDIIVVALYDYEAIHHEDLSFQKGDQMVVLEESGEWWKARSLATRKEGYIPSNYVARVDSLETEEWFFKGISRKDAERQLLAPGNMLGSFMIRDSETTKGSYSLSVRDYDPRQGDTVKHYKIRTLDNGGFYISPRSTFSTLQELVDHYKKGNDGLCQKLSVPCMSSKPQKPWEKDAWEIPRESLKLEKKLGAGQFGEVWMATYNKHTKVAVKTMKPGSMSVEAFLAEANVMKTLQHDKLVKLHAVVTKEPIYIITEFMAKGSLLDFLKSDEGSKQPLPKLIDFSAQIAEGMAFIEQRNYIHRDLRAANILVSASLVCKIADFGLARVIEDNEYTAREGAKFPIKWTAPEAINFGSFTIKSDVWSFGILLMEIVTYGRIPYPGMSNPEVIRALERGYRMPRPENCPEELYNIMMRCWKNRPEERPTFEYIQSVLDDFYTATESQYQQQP", "test": "HCK Kinase Assay (ProFluor Src-Family Kinase Assay)", "format": "biochemical", "conditions": "not given", "in_short": "(§1)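 ProFluor Src-family format: after the kinase reaction, protease solution was added for 60 min at room temperature (22-25° C), then stabilizer.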", "units": {"IC50": "nM"}}
{"smiles": "CN1CCN([C@H]2CC[C@@H](n3cc(-c4ccc(Oc5ccccc5)cc4)c4c(N)ncnc43)CC2)CC1", "note": "[Example 2, 7-((cis)-4-(4-methylpiperazin-1-yl)cyclohexyl)-5-(4-phenoxyphenyl)-7H-pyrrolo[2,3-d]pyrimidin-4-amine]", "IC50": "50 to 250"}
{"target": "N-terminally GST-tagged HCK (75-526) (Homo sapiens (Human), UniProt P08631)", "test": "HCK Kinase Assay (ProFluor Src-Family Kinase Assay)", "format": "biochemical", "conditions": "HCK inhibitory activity, 50 μM ATP; read-out: HCK Activity", "in_short": "as §1", "units": {"IC50": "nM"}}
{"smiles": "Nc1ncnc2c1c(-c1ccc(Oc3ccccc3)cc1)cn2C1CCN(C2CCCC(N)C2)CC1", "note": "(stereo not shown) [Example 159, 7-(1-(3-aminocyclohexyl)piperidin-4-yl)-5-(4-phenoxyphenyl)-7H-pyrrolo[2,3-d]pyrimidin-4-amine]", "IC50": "< 50"}
{"smiles": "CN1CC2(C1)CN([C@H]1CC[C@@H](n3cc(-c4ccc(Oc5ccccc5)cc4)c4c(N)ncnc43)CC1)C2", "note": "[Example 80, 7-((cis)-4-(6-methyl-2,6-diazaspiro[3.3]heptan-2-yl)cyclohexyl)-5-(4-phenoxyphenyl)-7H-pyrrolo[2,3-d]pyrimidin-4-amine]", "IC50": "250 to 10000"}
{"smiles": "Nc1ncnc2c1c(-c1ccc(Oc3ccccc3)cc1)cn2C1CCN(C2CCNC(CO)C2)CC1", "note": "(stereo not shown) [Example 157, (4-(4-amino-5-(4-phenoxyphenyl)-7H-pyrrolo[2,3-d]pyrimidin-7-yl)-[1,4′-bipiperidin]-2′-yl)methanol]", "IC50": "< 50"}
{"smiles": "CC1(N)CCN([C@H]2CC[C@H](n3cc(-c4ccc(Oc5ccccc5)cc4)c4c(N)ncnc43)CC2)CC1", "note": "[Example 50, 7-((trans)-4-(4-amino-4-methylpiperidin-1-yl)cyclohexyl)-5-(4-phenoxyphenyl)-7H-pyrrolo[2,3-d]pyrimidin-4-amine]", "IC50": "50 to 250"}
{"smiles": "CN1CCN([C@H]2CC[C@H](n3cc(-c4ccc(Oc5ccccc5C#N)cc4)c4c(N)ncnc43)CC2)CC1", "note": "[Example 112, 2-(4-(4-amino-7-((trans)-4-(4-methylpiperazin-1-yl)cyclohexyl)-7H-pyrrolo[2,3-d]pyrimidin-5-yl)phenoxy)benzonitrile]", "IC50": "< 50"}
{"smiles": "CN1CCOC(C2CCC(n3cc(-c4ccc(Oc5ccccc5)cc4)c4c(N)ncnc43)CC2)C1=O", "note": "(stereo not shown) [Example 143, 2-(4-(4-Amino-5-(4-phenoxyphenyl)-7H-pyrrolo[2,3-d]pyrimidin-7-yl)cyclohexyl)-4-methylmorpholin-3-one]", "IC50": "50 to 250"}
{"smiles": "CN1CCN([C@H]2CC[C@H](n3cc(-c4ccc(C(O)c5ccccc5)cc4)c4c(N)ncnc43)CC2)CC1", "note": "(stereo partly drawn) [Example 114, (4-(4-amino-7-((trans)-4-(4-methylpiperazin-1-yl)cyclohexyl)-7H-pyrrolo[2,3-d]pyrimidin-5-yl)phenyl)(phenyl)methanol]", "IC50": "< 50"}
{"smiles": "CN1CCN([C@H]2CC[C@H](c3cn(-c4ccc(Oc5ccccc5)cc4)c4c(N)ncnc43)CC2)CC1", "note": "[Example 177, 7-((trans)-4-(4-methylpiperazin-1-yl)cyclohexyl)-5-(4-phenoxyphenyl)-5H-pyrrolo[3,2-d]pyrimidin-4-amine]", "IC50": "< 50"}
{"smiles": "C[C@@H]1CN([C@H]2CC[C@@H](n3cc(-c4ccc(Oc5ccccc5)cc4)c4c(N)ncnc43)CC2)C[C@H](C)N1", "note": "[Example 26, 7-((cis)-4-((3S,5R)-3,5-dimethylpiperazin-1-yl)cyclohexyl)-5-(4-phenoxyphenyl)-7H-pyrrolo[2,3-d]pyrimidin-4-amine]", "IC50": "< 50"}
{"smiles": "Nc1ncnc2c1c(-c1ccc(Oc3ccccc3)cc1)cn2[C@H]1CC[C@H](N2C[C@@H](O)[C@@H](O)C2)CC1", "note": "[Example 75, (3R,4S)-1-((trans)-4-(4-amino-5-(4-phenoxyphenyl)-7H-pyrrolo[2,3-d]pyrimidin-7-yl)cyclohexyl)pyrrolidine-3,4-diol]", "IC50": "50 to 250"}
{"smiles": "Nc1ncnc2c1c(-c1ccc(Oc3ccccc3)cc1)cn2[C@H]1CC[C@H](NCc2n[nH]c(=O)[nH]2)CC1", "note": "[Example 85, 3-((((trans)-4-(4-amino-5-(4-phenoxyphenyl)-7H-pyrrolo[2,3-d]pyrimidin-7-yl)cyclohexyl)amino)methyl)-1H-1,2,4-triazol-5(4H)-one]", "IC50": "< 50"}
{"smiles": "C[C@@H]1CN([C@H]2CC[C@H](n3cc(-c4ccc(Oc5ccccc5)cc4)c4c(N)ncnc43)CC2)C[C@H](C)N1", "note": "[Example 25, 7-((trans)-4-((3S,5R)-3,5-dimethylpiperazin-1-yl)cyclohexyl)-5-(4-phenoxyphenyl)-7H-pyrrolo[2,3-d]pyrimidin-4-amine]", "IC50": "50 to 250"}
